Measured values as given in PubChem BioAssay (NCI).
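These data come from cells grown in 96-well plates and exposed to compound for 48 hours at five concentrations. GI50 = concentration required for 50% inhibition of growth. TGI: total growth inhibition.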

Legend:
Test in all cases: NCI-60 cell line screen, 48 h
[1] = tested on: HCT-116 colon
[2] = tested on: MALME-3M melanoma
[3] = tested on: COLO 205 colon
[4] = tested on: SF-268 CNS
[5] = tested on: TK-10 renal
[6] = tested on: MOLT-4 leukemia
[7] = tested on: NCI-H23 lung
[8] = tested on: HCC-2998 colon
[9] = tested on: NCI-H522 lung
[10] = tested on: EKVX NSCLC

| SMILES | TGI [1] | TGI [2] | TGI [3] | TGI [4] | TGI [5] | TGI [6] | TGI [7] | TGI [8] | TGI [9] | GI50 [1] | GI50 [2] | GI50 [3] | GI50 [4] | GI50 [5] | GI50 [6] | GI50 [7] | GI50 [8] | GI50 [9] | TGI [10] | GI50 [10] |
| --- | --- | --- | --- | --- | --- | --- | --- | --- | --- | --- | --- | --- | --- | --- | --- | --- | --- | --- | --- | --- |
| CC(=O)Nc1cc(N(CCOS(C)(=O)=O)CCOS(C)(=O)=O)ccc1N=O | > 100 µM | > 100 µM | > 100 µM | > 100 µM | > 100 µM | > 100 µM | > 100 µM | > 100 µM | > 100 µM | – | – | – | – | – | – | – | – | – | – | – |
| Cc1ccc(-c2cc3c(SCC(=O)Nc4cc(C(F)(F)F)ccc4Cl)nccn3n2)cc1 | > 100 µM | > 100 µM | > 100 µM | > 100 µM | > 100 µM | > 100 µM | > 100 µM | > 100 µM | – | 5.01 µM | > 100 µM | > 100 µM | 79.4 µM | > 100 µM | > 100 µM | > 100 µM | > 100 µM | – | – | – |
| Cc1ccc2ncnc(N(CC(C)C)CC(C)C)c2c1 | 27.7 µM | 31.7 µM | 39.1 µM | 37.7 µM | 37.5 µM | 38.4 µM | 28.5 µM | 35.7 µM | > 100 µM | – | 16.8 µM | 16.9 µM | 16.2 µM | 19.4 µM | 7.6 µM | 11.1 µM | 16.2 µM | 18.9 µM | – | – |
| O=CNc1ncn[nH]1 | > 100 µM | > 100 µM | > 100 µM | > 100 µM | > 100 µM | > 100 µM | > 100 µM | – | > 100 µM | – | – | – | – | – | – | – | – | – | > 100 µM | – |
| O=C1c2nsnc2C(=O)c2c(F)c(F)c(F)c(F)c21 | 1.36 µM | – | 0.527 µM | 3.17 µM | 1.92 µM | 1.44 µM | – | 3.14 µM | – | 0.426 µM | – | 0.236 µM | 1.6 µM | 0.71 µM | 0.298 µM | – | 1.56 µM | – | – | – |
| O=C(c1ccccc1)c1ccc(Oc2ccc([N+](=O)[O-])cc2[N+](=O)[O-])cc1 | 26.2 µM | – | 5.46 µM | 11.9 µM | > 100 µM | > 100 µM | 54.9 µM | 25.3 µM | 6.53 µM | 3.29 µM | – | 2.4 µM | 3.3 µM | 8.33 µM | 3.08 µM | 4.33 µM | 11.4 µM | 2.51 µM | 38.4 µM | 13.2 µM |
| COC(=O)C(=O)C(C(=O)C(=O)Nc1nc2ccc(C)cc2s1)c1nc2ccc([N+](=O)[O-])cc2[nH]c1=O (centres undefined) | > 100 µM | > 100 µM | – | > 100 µM | > 100 µM | – | > 100 µM | > 100 µM | > 100 µM | – | – | – | – | – | – | – | – | – | > 100 µM | – |
| COc1ccc2cc(-c3cc4c(oc3=O)-c3ccccc3OC4O)c(=O)oc2c1 (centres undefined) | 34.7 µM | 36.8 µM | 33.4 µM | 33.8 µM | 37 µM | > 100 µM | 33.4 µM | – | 37.6 µM | 20.2 µM | 19.3 µM | 16.1 µM | 16.9 µM | 19.9 µM | 50 µM | 17.7 µM | – | 17 µM | 32.8 µM | 15.2 µM |
| CC(/C(=N\Nc1ccccc1)c1ccc(O)cc1)C1C(=O)Oc2ccccc21 (centres undefined) | > 100 µM | > 100 µM | > 100 µM | – | > 100 µM | > 100 µM | – | > 100 µM | – | – | – | – | – | – | – | – | – | – | > 100 µM | – |
| CCOC(=O)C1C2CCC(C2)C1(CCl)C(=O)OCC (centres undefined) | > 100 µM | > 100 µM | > 100 µM | > 100 µM | > 100 µM | > 100 µM | > 100 µM | > 100 µM | – | – | – | – | – | – | – | – | – | – | – | – |
| Cn1cc(C2=C(c3cn(C)c4c([N+](=O)[O-])cccc34)C(=O)NC2=O)c2ccccc21 | > 25 µM | > 25 µM | > 25 µM | > 25 µM | > 25 µM | > 25 µM | > 25 µM | > 25 µM | > 25 µM | > 25 µM | > 25 µM | > 25 µM | > 25 µM | > 25 µM | > 25 µM | > 25 µM | > 25 µM | > 25 µM | – | – |
| O=C1c2ccccc2C(=O)N1CCN(CCN1C(=O)c2ccccc2C1=O)Cn1cccn1 | 31.6 µM | – | > 100 µM | > 100 µM | > 100 µM | > 100 µM | – | > 100 µM | > 100 µM | – | – | – | – | – | – | – | – | – | > 100 µM | – |
| COc1ccc2c(c1)[n+](=O)c(C(=O)c1ccco1)c(C(F)(F)F)n2[O-] | 15.1 µM | – | 18.7 µM | 33.2 µM | 60.4 µM | > 100 µM | 5.05 µM | – | > 100 µM | 0.851 µM | – | 3.55 µM | 3.41 µM | 8.56 µM | > 100 µM | 2.02 µM | – | 35.6 µM | 9.81 µM | 3.47 µM |
